Data published in ChEMBL document CHEMBL4118189, “Discovery of novel N-hydroxy-2-arylisoindoline-4-carboxamides as potent and selective inhibitors of HDAC11” (Bioorg Med Chem Lett, 2018).
≈ marks a conversion by molar mass, not a printed value.

Assays:
[1] = target: T1, Protein deacetylase HDAC6 (Homo sapiens, UniProt Q9UBN7); test: Inhibition of full length recombinant human HDAC6 using fluorescent-labeled peptide as substrate by electrophoretic mobility shift assay
T1 sequence (Q9UBN7 whole entry): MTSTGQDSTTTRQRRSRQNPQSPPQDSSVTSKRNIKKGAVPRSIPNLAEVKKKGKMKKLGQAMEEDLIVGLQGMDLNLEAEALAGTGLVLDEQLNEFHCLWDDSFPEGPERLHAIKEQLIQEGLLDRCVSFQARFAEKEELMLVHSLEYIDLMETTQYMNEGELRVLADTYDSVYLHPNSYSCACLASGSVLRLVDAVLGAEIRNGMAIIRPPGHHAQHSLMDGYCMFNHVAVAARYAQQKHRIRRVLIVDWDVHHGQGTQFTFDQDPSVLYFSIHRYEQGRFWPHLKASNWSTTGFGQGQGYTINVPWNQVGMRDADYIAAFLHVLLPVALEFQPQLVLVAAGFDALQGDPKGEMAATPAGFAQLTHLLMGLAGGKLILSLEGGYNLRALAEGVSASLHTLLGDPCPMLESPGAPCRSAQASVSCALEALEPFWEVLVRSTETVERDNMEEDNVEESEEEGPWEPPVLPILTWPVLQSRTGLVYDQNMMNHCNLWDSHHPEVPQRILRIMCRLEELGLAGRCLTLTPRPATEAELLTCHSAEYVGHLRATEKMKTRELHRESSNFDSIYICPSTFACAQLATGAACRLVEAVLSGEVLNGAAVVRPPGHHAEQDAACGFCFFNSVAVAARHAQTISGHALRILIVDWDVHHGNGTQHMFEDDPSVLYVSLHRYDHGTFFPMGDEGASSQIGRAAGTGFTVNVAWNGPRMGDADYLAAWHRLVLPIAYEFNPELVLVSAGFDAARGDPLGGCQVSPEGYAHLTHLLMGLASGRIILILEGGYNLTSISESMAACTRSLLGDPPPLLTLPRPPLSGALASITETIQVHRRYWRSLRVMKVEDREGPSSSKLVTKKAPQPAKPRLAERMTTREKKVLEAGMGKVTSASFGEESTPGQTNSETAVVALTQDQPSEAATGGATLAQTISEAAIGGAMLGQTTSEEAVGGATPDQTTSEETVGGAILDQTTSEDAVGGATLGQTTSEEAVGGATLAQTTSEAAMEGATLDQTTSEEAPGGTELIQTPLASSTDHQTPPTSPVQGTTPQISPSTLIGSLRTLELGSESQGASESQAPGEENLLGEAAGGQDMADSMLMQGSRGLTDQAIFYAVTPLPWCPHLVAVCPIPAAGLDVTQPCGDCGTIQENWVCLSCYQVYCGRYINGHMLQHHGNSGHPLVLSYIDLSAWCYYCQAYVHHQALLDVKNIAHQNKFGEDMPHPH

[2] = Intrinsic clearance in mouse liver microsomes; type: ADME, microsome; conditions: read-out: CLH
[3] = Kinetic solubility of the compound at pH 7.4; type: physicochemical; conditions: buffer, read-out: Kinetic_solubility
[4] = Permeability of the compound by PAMPA; type: ADME; conditions: read-out: permeability
[5] = target: Histone deacetylase 1 (Homo sapiens, UniProt Q13547); test: Inhibition of full length recombinant human HDAC1 using fluorescent-labeled peptide as substrate by electrophoretic mobility shift assay
Sequence of Histone deacetylase 1 (Q13547 whole entry): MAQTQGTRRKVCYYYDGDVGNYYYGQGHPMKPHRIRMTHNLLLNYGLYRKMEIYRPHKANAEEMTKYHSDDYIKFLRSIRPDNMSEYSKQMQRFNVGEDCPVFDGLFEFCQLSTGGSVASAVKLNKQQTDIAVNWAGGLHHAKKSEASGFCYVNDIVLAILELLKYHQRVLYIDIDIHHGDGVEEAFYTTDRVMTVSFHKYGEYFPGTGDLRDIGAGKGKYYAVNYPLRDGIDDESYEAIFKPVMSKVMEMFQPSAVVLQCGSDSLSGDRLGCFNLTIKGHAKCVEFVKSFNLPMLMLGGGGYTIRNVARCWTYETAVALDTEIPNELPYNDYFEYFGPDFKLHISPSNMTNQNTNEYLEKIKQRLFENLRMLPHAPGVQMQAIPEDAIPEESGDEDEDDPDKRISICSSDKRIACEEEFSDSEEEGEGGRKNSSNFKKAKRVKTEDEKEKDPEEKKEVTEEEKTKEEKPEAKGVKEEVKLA

[6] = target: Histone deacetylase 2 (Homo sapiens, UniProt Q92769); test: Inhibition of full length recombinant human HDAC2 using fluorescent-labeled peptide as substrate by electrophoretic mobility shift assay
Sequence of Histone deacetylase 2 (Q92769 whole entry): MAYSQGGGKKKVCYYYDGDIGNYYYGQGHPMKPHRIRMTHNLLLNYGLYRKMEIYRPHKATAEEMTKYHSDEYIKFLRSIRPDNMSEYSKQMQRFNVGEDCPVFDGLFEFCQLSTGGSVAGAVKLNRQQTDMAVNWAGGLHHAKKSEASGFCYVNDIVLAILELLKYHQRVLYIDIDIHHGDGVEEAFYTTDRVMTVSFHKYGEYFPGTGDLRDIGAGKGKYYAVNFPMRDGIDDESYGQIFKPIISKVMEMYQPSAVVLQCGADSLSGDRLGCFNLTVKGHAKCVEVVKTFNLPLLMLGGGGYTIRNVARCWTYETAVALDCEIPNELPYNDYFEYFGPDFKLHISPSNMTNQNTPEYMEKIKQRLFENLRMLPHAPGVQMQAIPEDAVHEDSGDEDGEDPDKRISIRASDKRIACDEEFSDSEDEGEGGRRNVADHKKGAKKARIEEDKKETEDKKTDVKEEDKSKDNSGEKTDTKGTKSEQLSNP

[7] = target: Histone deacetylase 3 (Homo sapiens, UniProt O15379); test: Inhibition of full length recombinant human HDAC3 using fluorescent-labeled peptide as substrate by electrophoretic mobility shift assay
Sequence of Histone deacetylase 3 (O15379 whole entry): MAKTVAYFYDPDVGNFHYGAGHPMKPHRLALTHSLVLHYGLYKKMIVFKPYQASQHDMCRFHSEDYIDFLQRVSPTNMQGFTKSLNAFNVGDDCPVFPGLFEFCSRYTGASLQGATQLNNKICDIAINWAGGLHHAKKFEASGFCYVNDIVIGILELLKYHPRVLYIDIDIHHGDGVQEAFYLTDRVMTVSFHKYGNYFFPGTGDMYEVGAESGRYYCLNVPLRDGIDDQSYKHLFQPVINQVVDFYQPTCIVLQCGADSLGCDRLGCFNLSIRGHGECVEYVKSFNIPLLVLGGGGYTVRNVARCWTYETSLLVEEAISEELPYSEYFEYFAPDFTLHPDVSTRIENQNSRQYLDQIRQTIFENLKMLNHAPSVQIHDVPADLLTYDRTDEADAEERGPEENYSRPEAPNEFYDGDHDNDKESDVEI

[8] = target: Histone deacetylase 4 (Homo sapiens, UniProt P56524); test: Inhibition of full length recombinant human HDAC4 using fluorescent-labeled peptide as substrate by electrophoretic mobility shift assay
Sequence of Histone deacetylase 4 (P56524 whole entry): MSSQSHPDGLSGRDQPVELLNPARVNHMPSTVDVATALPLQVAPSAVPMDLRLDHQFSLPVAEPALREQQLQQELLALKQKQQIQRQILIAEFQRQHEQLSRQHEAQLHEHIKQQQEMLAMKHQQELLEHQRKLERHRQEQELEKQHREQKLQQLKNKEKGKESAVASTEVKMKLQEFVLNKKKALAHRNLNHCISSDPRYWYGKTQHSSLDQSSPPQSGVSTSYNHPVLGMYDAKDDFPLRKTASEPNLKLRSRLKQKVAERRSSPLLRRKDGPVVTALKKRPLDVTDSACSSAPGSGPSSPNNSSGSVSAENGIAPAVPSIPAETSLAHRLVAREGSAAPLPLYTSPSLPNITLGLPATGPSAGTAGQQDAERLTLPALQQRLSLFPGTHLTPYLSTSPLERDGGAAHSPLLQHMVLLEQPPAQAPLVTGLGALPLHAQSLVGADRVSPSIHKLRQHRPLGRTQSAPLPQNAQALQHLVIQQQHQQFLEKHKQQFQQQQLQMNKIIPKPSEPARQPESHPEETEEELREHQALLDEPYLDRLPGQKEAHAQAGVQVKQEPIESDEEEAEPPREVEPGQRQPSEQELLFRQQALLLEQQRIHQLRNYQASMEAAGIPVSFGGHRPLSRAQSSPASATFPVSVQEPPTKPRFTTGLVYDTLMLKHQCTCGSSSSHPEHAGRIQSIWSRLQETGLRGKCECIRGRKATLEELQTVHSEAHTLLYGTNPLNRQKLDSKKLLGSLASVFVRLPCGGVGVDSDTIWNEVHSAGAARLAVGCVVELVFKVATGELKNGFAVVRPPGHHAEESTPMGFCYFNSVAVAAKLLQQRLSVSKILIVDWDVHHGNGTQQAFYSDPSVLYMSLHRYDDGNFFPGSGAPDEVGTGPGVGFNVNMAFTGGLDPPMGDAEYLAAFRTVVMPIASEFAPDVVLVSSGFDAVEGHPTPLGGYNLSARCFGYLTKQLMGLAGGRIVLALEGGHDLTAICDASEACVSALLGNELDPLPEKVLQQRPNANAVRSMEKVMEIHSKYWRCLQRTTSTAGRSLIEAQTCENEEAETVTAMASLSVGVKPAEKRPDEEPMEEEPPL

[9] = target: Histone deacetylase 5 (Homo sapiens, UniProt Q9UQL6); test: Inhibition of full length recombinant human HDAC5 using fluorescent-labeled peptide as substrate by electrophoretic mobility shift assay
Sequence of Histone deacetylase 5 (Q9UQL6 whole entry): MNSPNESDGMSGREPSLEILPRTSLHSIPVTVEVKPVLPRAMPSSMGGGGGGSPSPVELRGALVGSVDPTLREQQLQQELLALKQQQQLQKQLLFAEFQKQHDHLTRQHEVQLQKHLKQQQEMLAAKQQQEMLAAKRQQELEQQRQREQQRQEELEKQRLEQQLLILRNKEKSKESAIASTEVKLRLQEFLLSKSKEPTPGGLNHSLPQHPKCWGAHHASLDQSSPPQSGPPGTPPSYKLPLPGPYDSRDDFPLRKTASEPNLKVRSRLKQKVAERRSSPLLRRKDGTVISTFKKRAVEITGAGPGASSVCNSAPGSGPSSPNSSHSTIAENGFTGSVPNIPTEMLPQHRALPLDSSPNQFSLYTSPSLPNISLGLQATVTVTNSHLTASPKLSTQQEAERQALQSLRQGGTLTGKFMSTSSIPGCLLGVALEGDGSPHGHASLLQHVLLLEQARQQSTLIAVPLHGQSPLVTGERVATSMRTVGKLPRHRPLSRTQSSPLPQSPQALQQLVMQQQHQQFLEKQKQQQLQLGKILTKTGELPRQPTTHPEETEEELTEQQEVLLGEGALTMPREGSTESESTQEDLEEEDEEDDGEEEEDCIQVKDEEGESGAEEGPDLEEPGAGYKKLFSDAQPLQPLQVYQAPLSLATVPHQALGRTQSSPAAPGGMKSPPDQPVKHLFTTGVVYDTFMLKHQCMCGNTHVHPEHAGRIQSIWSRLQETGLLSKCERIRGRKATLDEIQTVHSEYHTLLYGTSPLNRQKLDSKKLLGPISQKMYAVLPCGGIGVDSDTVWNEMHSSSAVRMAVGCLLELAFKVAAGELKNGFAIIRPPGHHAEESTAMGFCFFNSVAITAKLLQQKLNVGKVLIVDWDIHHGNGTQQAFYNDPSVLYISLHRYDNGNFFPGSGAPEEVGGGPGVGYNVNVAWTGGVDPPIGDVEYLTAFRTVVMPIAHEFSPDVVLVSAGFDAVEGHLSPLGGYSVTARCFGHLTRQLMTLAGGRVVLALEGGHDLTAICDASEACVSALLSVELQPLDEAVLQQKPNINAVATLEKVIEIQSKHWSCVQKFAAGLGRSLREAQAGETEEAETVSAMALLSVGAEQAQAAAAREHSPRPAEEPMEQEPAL

[10] = target: T2, Histone deacetylase 8 (Homo sapiens, UniProt Q9BY41); test: Inhibition of full length recombinant human HDAC8 using fluorescent-labeled peptide as substrate by electrophoretic mobility shift assay
T2 sequence (Q9BY41 whole entry): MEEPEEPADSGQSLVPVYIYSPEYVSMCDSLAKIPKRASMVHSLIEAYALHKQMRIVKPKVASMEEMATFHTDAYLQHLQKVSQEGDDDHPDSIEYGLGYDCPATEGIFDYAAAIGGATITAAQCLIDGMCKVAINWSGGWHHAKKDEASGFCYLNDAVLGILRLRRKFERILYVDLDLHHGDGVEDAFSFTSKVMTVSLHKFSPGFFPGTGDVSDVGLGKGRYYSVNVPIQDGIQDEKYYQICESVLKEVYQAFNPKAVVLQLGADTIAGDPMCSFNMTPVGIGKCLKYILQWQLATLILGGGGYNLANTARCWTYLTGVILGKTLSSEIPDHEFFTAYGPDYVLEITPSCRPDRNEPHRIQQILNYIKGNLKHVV

[11] = target: T3, Polyamine deacetylase HDAC10 (Homo sapiens, UniProt Q969S8); test: Inhibition of full length recombinant human HDAC10 using fluorescent-labeled peptide as substrate by electrophoretic mobility shift assay
T3 sequence (Q969S8 whole entry): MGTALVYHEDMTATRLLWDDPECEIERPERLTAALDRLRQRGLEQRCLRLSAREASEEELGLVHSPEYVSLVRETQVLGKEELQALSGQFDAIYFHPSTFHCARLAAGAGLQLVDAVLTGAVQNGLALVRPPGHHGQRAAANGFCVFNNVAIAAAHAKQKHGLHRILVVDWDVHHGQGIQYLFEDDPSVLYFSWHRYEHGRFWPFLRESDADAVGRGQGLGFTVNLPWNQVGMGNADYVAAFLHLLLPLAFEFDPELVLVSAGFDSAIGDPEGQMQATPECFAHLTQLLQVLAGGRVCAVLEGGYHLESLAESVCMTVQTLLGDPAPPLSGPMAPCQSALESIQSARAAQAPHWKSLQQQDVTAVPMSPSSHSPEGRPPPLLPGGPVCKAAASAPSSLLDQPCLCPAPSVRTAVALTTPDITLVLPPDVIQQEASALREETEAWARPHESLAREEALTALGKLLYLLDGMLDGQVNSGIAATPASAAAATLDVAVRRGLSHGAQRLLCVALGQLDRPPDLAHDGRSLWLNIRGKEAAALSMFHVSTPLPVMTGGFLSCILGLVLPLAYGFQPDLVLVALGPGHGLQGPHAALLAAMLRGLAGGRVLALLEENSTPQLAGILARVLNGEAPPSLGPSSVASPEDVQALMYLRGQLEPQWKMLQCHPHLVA

Structure (SMILES): CC1(C)c2cccc(C(N)=O)c2CN1c1cnc(C(F)(F)F)cn1
- IC50 [1]: > 10 µM
- microsomal CLint [2]: 7 µL/min/mg
- solubility kinetic [3]: 0.3 µM (≈ 0.101 µg/mL)
- Papp [4]: 17 ×10⁻⁶ cm/s
- IC50 [5]: > 10 µM
- IC50 [6]: > 10 µM
- IC50 [7]: > 10 µM
- IC50 [8]: > 10 µM
- IC50 [9]: > 10 µM
- IC50 [10]: > 10 µM
- IC50 [11]: > 10 µM
